Where two headings read alike, the source gives them in different places.
Assays:
HeLa-ACE2 cells [1] = assay: cells; details: Homo sapiens; for Emax: HeLa-ACE2, 24 h, read-out: HeLa-ACE2 cell count Sinf Average; for EC50: HeLa-ACE2, read-out: HeLa-ACE2 cell count EC50 GeoMean
in vitro [2] = details: human, Calu-3 uninfected cytotoxicity CC50 GeoMean
SARS-CoV-2 [3] = format: cell-based; details: combination with remdesivir
SARS-CoV-2 [4] = assay: microbe, parasite or virus in culture; format: cell-based; details: for Emax: Severe acute respiratory syndrome coronavirus 2, HeLa-ACE2, 24 h, read-out: HeLa-ACE2 CoV-2 Sinf Average; for EC50: Severe acute respiratory syndrome coronavirus 2, HeLa-ACE2, detail column, read-out: HeLa-ACE2 CoV-2 EC50 GeoMean; for HeLa-ACE2 SI: selectivity index, uninfected HeLa-ACE2 CC50 / SARS-CoV-2 EC50
Calu-3 cells [5] = assay: cells; details: Homo sapiens, Calu-3, read-out: Calu-3 cell count EC50 GeoMean
HeLa-ACE2 cells [6] = assay: Total cell count in the HeLa-ACE2 TOA (time of addition) assay; format: cell-based, human; details: Homo sapiens, HeLa-ACE2; read-out: HeLa-ACE2 TOA cell count EC50 GeoMean
[7] = Uninfected HeLa-ACE2 24 h live/dead cytotoxicity counter screen; format: cell-based, human; details: human, uninfected HeLa-ACE2 cells; read-out: HeLa-ACE2 uninfected cytotoxicity CC50 GeoMean
in vitro [8] = details: human
SARS-CoV-2 [9] = assay: microbe, parasite or virus in culture; format: cell-based; details: for EC50: read-out: Calu-3 CoV-2 EC50 GeoMean
Calu-3 cells [10] = tested on: Calu-3 cells
in vitro [11] = details: human; remark: listed apart in the source
SARS-CoV-2 [12] = assay: microbe, parasite or virus in culture; format: cell-based; details: for EC50: read-out: HeLa-ACE2 TOA CoV-2 EC50 GeoMean
HepG2 [13] = assay: HepG2 72 h CellTiter-Glo cytotoxicity; details: 72 h
[14] = HEK293T 72 h CellTiter-Glo cytotoxicity; details: human, HEK293T cells
HEK293T = details: human, 72 h
HeLa-ACE2 cells [15] = assay: Total cell count in the HeLa-ACE2 TOA assay; format: cell-based; details: Homo sapiens, HeLa-ACE2; read-out: HeLa-ACE2 TOA cell count EC50 GeoMean
From the text: Supplement 41467_2021_23328_MOESM3_ESM.xlsx, sheet "Table S1" | column: HeLa-ACE2 TOA cell count

HepG2 [16] = details: human, 72 h
HeLa-ACE2 cells [17] = assay: Uninfected HeLa-ACE2 24 h live/dead cytotoxicity counter screen; format: cell-based, human; details: curve plateau at infinite concentration
[18] = Severe acute respiratory syndrome coronavirus 2, Calu-3
[19] = Severe acute respiratory syndrome coronavirus 2, HeLa-ACE2, detail column

| Structure (SMILES) | Emax (HeLa-ACE2 cells [1]) [%] | EC50 (HeLa-ACE2 cells [1]) [µM] | CC50 at 48 h (in vitro [2]) [µM] | Emax (SARS-CoV-2 [4]) [%] | EC50 (SARS-CoV-2 [4]) [µM] | HeLa-ACE2 SI (SARS-CoV-2 [4]) | EC50 (Calu-3 cells [5]) [µM] | EC50 (HeLa-ACE2 cells [6]) [µM] | CC50 at 24 h [7] [µM] | CC50 at 72 h (in vitro [8]) [µM] | EC50 (SARS-CoV-2 [9]; [18]) [µM] | uninfected Calu-3 CC50 (Calu-3 cells [10]) | CC50 at 72 h (in vitro [11]) [µM] | TOA:HeLa-ACE2 EC50 Ratio (SARS-CoV-2 [12]) | EC50 (SARS-CoV-2 [12]; [19]) [µM] | further results |
| --- | --- | --- | --- | --- | --- | --- | --- | --- | --- | --- | --- | --- | --- | --- | --- | --- |
| CCOC(=O)[C@@H]1O[C@H]1C(=O)N[C@@H](CC(C)C)C(=O)N1CCN(Cc2ccc(OC)c(OC)c2OC)CC1 [NCO 700] | -26 | > 5.08 | > 29.9 | 90 | 0.79 | > 50.44 | > 9.98 | > 9.59 | > 39.8 | > 39.8 | > 9.98 | > 29.867 ×÷ 1.001 (n=3) μM | > 39.8 | 12.146 | > 9.59 | HeLa-ACE2 synergy score with remdesivi (SARS-CoV-2 [3]): 0.209 δ |
| CC[C@H]1OC(=O)[C@H](C)[C@@H](O[C@H]2C[C@@](C)(OC)[C@@H](O)[C@H](C)O2)[C@H](C)[C@@H](O[C@@H]2O[C@H](C)C[C@H](N(C)C)[C@H]2O)[C@](C)(O)C[C@@H](C)CN(C)[C@H](C)[C@@H](O)[C@]1(C)O [Azithromycin] | – | > 9.59 | – | 100 | 0.65 | > 61.26 | > 9.85 | > 9.59 | > 39.8 | – | > 9.85 | – | – | 14.747 | > 9.59 | HepG2 72-hour cytotoxicity Sinf Average (HepG2 [13]): -100%; CC50 (in vitro [8]): > 39.8 µM; CC50 at 72 h [14]: > 39.8 µM |
| COC(=O)C1=C(C)NC(C)=C(C(=O)OCCN2CCN(C(c3ccccc3)c3ccccc3)CC2)C1c1cccc([N+](=O)[O-])c1 (stereo not shown) [Manidipine (Manyper)] | 100 | > 9.6 | > 29.9 | – | > 6.89 | – | > 9.98 | – | > 17.1 | 30.7 | – | > 29.89 ×÷ 1.002 (n=5) μM | 30.8 | – | – | HEK293T 72-hour cytotoxicty Sinf Average (HEK293T): -100%; EC50 (HeLa-ACE2 cells [15]): > 9.61 µM; HeLa-ACE2 synergy score with remdesivi [δ] (SARS-CoV-2 [3]; synergy score δ): -4.727; Emax (SARS-CoV-2 [4]; curve plateau at infinite concentration): 100%; HepG2 72-hour cytotoxicity Sinf Average (HepG2 [16]): -100%; HeLa-ACE2 uninfected cytotoxicity Sinf Average (HeLa-ACE2 cells [17]): -96%; Emax (SARS-CoV-2 [9]; Severe acute respiratory syndrome coronavirus 2, Calu-3, 48 h, curve plateau at infinite concentration, read-out: Calu-3 CoV-2 Sinf Average): 80%; EC50 (SARS-CoV-2 [9]; Severe acute respiratory syndrome coronavirus 2, Calu-3, detail column): > 5.48 µM; Calu-3 uninfected cytotoxicity Sinf Average (Calu-3 cells [10]; human, 48 h): -100%; Emax (SARS-CoV-2 [12]; Severe acute respiratory syndrome coronavirus 2, HeLa-ACE2, 10 h, curve plateau at infinite concentration, read-out: HeLa-ACE2 TOA CoV-2 Sinf Average): 100%; EC50 (SARS-CoV-2 [12]; Severe acute respiratory syndrome coronavirus 2, HeLa-ACE2): 7.72 µM |

Reference: article PMC8175350, “Drug repurposing screens identify chemical entities for the development of COVID-19 interventions” (Nature Communications, 2021)
